Data published in BindingDB's records for doi:10.1038/sj.bjp.0702658 (Universit&Agrove, 1999).
Values belong to the compound of their own block, whether it stands above or below them.

Target: T1, Melatonin receptor type 1B (Homo sapiens, UniProt P49286)
T1 sequence (P49286 whole entry): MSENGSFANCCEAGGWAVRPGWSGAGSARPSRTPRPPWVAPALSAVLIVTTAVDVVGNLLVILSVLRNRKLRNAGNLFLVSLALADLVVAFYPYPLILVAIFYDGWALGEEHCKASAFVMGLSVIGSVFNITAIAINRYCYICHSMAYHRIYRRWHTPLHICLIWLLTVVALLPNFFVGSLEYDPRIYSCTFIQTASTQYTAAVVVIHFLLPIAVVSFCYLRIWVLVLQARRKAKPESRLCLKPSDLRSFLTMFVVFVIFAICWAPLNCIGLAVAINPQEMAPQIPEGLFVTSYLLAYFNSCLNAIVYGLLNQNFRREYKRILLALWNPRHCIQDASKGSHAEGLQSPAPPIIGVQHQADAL

Ki: 11.2 nM
Compound: CC(=O)NCCc1c(Cc2ccccc2)[nH]c2ccccc12 [CAS_117946-91-5]

Ki: 85.1 nM
Compound: O=C(NCCc1c(-c2ccccc2)[nH]c2ccccc12)C1CCC1 [N-CBCPT]

Second part, the compound before the results:

Compound: CC(=O)NCCc1c[nH]c2ccccc12 [N-Acetyltryptamine]
Ki: 64.6 nM

Compound: CC(=O)NCCc1c[nH]c2ccc(O)cc12 [N-Acetyltryptamine,5-Hydroxy]
Ki: 339 nM

Compound: COc1ccc2[nH]c(-c3ccccc3)c(CCNC(C)=O)c2c1 [Melatonin,2-Phenyl]
Ki: 0.03 nM
